The values below come from patent US20230407373A1 (priority 2020, published 2023).

Assay [1] deals with HCoV-OC43 gRNA and sgRNA. Format: binding.
The test system of assay [2] is gRNA of HCoV-OC43. Format: binding.

As for SLTM: host protein, UniProt Q9NWH9, the “target (unweighted spectral count, OC43 Probe II capture)” value in assay [1] (36 hpi, type n_36_v, tested against no-probe control, FDR<10%) is on record as 6. Further, the “target (unweighted spectral count, OC43 Probe II)” value in assay [1] (type n_48_v, 48 hpi, OC43 Probe II capture on infected cells) was found to be 8. In addition, in assay [1] (type n_48_v, 48 hpi, no-probe control on infected cells), the “background (unweighted spectral count, no-probe control)” value is on record as 1. In assay [2] (type g_36_m, HCoV-OC43-infected HCT-8 cells, 36 hpi, Probe I), the “target (spectral count)” value is reported as 10. Besides, the “background (spectral count)” value in assay [2] (type g_36_m, uninfected-probe control, 36 hpi, Probe I) was 1. For the same substance, in assay [2] (type n_48_v: 48 hours post-infection, infected cells, OC43 Probe I, unweighted spectral count), the “target (spectral count, OC43 Probe I RNP capture)” value is 11. The “background (spectral count, no-probe control)” value in assay [2] (type n_48_v: 48 hours post-infection, no-probe control on infected cells) turned out to be 1.
